Read-outs that look alike come from different tables or passages of the source.
Tests used:
[1] = In vivo iontophoretic delivery of salmon calcitonin across skin microporated with maltose microneedles, serum SCT by ELISA; parameters: species or system hairless rat; details: for increase in concentration compared to delivery with microneedles alone: p<0.05; for increase in concentration compared to delivery with microneedles alone / Cmax / total amount of SCT delivered: hairless rat; for Cmax: hairless, rat, serum, topical or ocular, 350 µg, read-out: maximum concentration of SCT in the serum; for total amount of SCT delivered: calculated by WinNonlin
Procedure: • Purpose: To determine the effect of iontophoresis and its combination with microneedles on the in vivo delivery of salmon calcitonin (SCT) as a model peptide. • Methods: Microneedles, iontophoresis and the combination were investigated for their effect on the transdermal delivery of SCT in vivo using the hairless rat. SCT (350 μl of a 1 mg/ml solution in 50 mM citrate buffer, pH 4.0) was placed in a cartridge designed for iontophoresis. Maltose microneedles (500 micron, Texmac Inc.), stacked in three layers, were used to porate the skin prior to the application of the drug with or without iontophoresis. […] Transport of drug across the skin was assessed by collecting blood samples at regular intervals via the tail vein which were analyzed for serum SCT using ELISA. • Results: The maximum concentrations of SCT in the serum were 41.45 pg/ml, 605.21 pg/ml, and 2374.06 pg/ml under microneedles alone, 1 hr iontophoresis alone, and the combination, respectively. When compared to the delivery with microneedles alone, the increase in concentration with iontophoresis alone was 15-fold (p<0.05) and with the combination of microneedles the increase was 57-fold (p<0.05). The total amount of SCT delivered by iontophoresis and its combination with microneedles in the hairless rat was 648.67 ng/kg and 3075.96 ng/kg, respectively, as calculated by WinNonlin. • Conclusion: Iontophoresis or a disruption of the skin barrier by microneedles enabled the transdermal delivery of SCT.

[2] = In vivo delivery of salmon calcitonin using iontophoresis in combination with microporation using titanium needle arrays; parameters: species or system hairless rat; details: titanium needle array microporation in combination with iontophoresis; 0.5 minutes after administration; FIG. 1C

CC(C)C[C@H](NC(=O)[C@H](CCCCN)NC(=O)CNC(=O)[C@H](CC(C)C)NC(=O)[C@@H](NC(=O)[C@@H]1CSSC[C@H](N)C(=O)N[C@@H](CO)C(=O)N[C@@H](CC(N)=O)C(=O)N[C@@H](CC(C)C)C(=O)N[C@@H](CO)C(=O)N[C@@H]([C@@H](C)O)C(=O)N1)C(C)C)C(=O)N[C@@H](CO)C(=O)N[C@@H](CCC(N)=O)C(=O)N[C@@H](CCC(=O)O)C(=O)N[C@@H](CC(C)C)C(=O)N[C@@H](Cc1c[nH]cn1)C(=O)N[C@@H](CCCCN)C(=O)N[C@@H](CC(C)C)C(=O)N[C@@H](CCC(N)=O)C(=O)N[C@H](C(=O)N[C@@H](Cc1ccc(O)cc1)C(=O)N1CCC[C@H]1C(=O)N[C@@H](CCCNC(=N)N)C(=O)N[C@H](C(=O)N[C@@H](CC(N)=O)C(=O)N[C@H](C(=O)NCC(=O)N[C@@H](CO)C(=O)NCC(=O)N[C@H](C(=O)N1CCC[C@H]1C(N)=O)[C@@H](C)O)[C@@H](C)O)[C@@H](C)O)[C@@H](C)O [SCT, salmon calcitonin]
increase in concentration compared to delivery with microneedles alone ([1]; combination of iontophoresis and microneedles vs microneedles alone): 57 fold | Cmax ([1]; pH 4, transdermal, 1 hr iontophoresis alone (0.2 mA/cm^2), 350 μl of 1 mg/ml SCT, pH 4.0): 0.605 ng/mL | Cmax ([1]; pH 4, transdermal, maltose microneedles alone, 350 μl of 1 mg/ml SCT in 50 mM citrate buffer pH 4.0): 0.0415 ng/mL | Cmax ([1]; transdermal, combination of maltose microneedles and 1 hr iontophoresis (0.2 mA/cm^2)): 2.37 ng/mL | increase in concentration compared to delivery with microneedles alone ([1]; iontophoresis alone vs microneedles alone): 15 fold | total amount of SCT delivered ([1]; iontophoresis alone): 648.67 ng/kg | total amount of SCT delivered ([1]; iontophoresis in combination with microneedles): 3075.96 ng/kg | increase in amount of protein that permeated the skin compared to iontophoresis alone ([1]; microneedle treatment combined with iontophoresis vs iontophoresis alone, hairless rat model): about four | plasma concentration of SCT relative to microporation or iontophoresis alone [2]: about 10 fold
